Results taken from ChEMBL document CHEMBL4014354, “2'-Chloro,2'-fluoro Ribonucleotide Prodrugs with Potent Pan-genotypic Activity against Hepatitis C Virus Replication in Culture” (J Med Chem, 2017).

Assays:
Hepatitis C virus [1] = assay: Selectivity ratio of EC50 for HCV genotype 1b harboring NS5B S282T mutant to EC50 for HCV genotype 1b harboring wild type NS5B; type: functional, Hepacivirus hominis
HepG2 [2] = assay: Mitochondrial toxicity in human HepG2 cells assessed as cytochrome c oxidase subunit 2 DNA levels at 50 uM measured on day 14 by RT-PCR method relative to nuclear beta-actin DNA levels; type: cell-based; settings: hepg2, 50 µM
Cytochrome P450 2C9 = Cytochrome P450 2C9 (Homo sapiens, UniProt P11712); assay: Inhibition of human CYP2C9 using sulfaphenazole […]; type: ADME
Cytochrome P450 2D6 = Cytochrome P450 2D6 (Homo sapiens, UniProt P10635); assay: Inhibition of human CYP2D6 using quinidine […]; type: ADME
Hepatitis C virus [3] = assay: Antiviral activity against HCV genotype 4 infected in human HuH7 cells assessed as inhibition of viral RNA replication after 96 hrs by RT-PCR method; type: functional, cell-based, Hepacivirus hominis; settings: genotype 4, Huh-7, 96 h
Cytochrome P450 1A2 = molecular target: T1, Cytochrome P450 1A2 (Homo sapiens, UniProt P05177); assay: Inhibition of human CYP1A2 using alpha-naphthoflavone […]; type: ADME
T1 sequence (P05177 whole entry): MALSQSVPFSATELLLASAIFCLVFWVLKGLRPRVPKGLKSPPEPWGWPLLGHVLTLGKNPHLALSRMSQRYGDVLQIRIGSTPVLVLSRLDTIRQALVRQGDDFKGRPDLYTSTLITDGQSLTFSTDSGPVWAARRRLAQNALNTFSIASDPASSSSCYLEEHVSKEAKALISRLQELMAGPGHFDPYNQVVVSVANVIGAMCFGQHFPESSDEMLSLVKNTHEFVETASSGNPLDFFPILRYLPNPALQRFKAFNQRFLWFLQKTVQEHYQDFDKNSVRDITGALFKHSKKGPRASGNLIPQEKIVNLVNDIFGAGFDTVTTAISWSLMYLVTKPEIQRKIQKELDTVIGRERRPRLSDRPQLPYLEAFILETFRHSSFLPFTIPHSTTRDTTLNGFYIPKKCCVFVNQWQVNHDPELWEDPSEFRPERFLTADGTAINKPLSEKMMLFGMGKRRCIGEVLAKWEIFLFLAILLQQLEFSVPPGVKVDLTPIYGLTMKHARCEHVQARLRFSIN

[4] = Cytotoxicity against human HuH7 cells assessed as inhibition of cell proliferation after 4 days by MTS assay; type: cell-based, Huh-7
[5] = Metabolic stability in human intestinal microsomes assessed as compound remaining after 60 mins; type: ADME, Intestine, Microsome; settings: read-out: Stability
[6] = Metabolic stability in human blood assessed as compound remaining at 2 uM after 2 hrs by LC-MS/MS method; type: ADME, tissue-based; settings: read-out: Stability
[7] = test system: cytochrome c oxidase subunit 2 DNA (mitochondrial DNA) levels; assay: Mitochondrial toxicity in human HepG2 cells assessed as inhibition of cytochrome c oxidase subunit 2 DNA levels at 50 uM measured on day 14 by RT-PCR method relative to nuclear beta-actin DNA levels; type: cell-based
nuclear DNA levels [8] = assay: in vitro; settings: human, HepG2 cells
[9] = Cytotoxicity against human CEM cells assessed as inhibition of cell proliferation after 4 days by MTT assay; type: cell-based, CCRF-CEM
[10] = Cytotoxicity against human PBMC assessed as inhibition of cell proliferation after 5 days by MTT assay; type: cell-based
Hepatitis C virus [11] = assay: Antiviral activity against HCV genotype 1b harboring NS5B S282T mutant infected in human HuH7 cells assessed as inhibition of viral RNA replication after 4 days by luciferase reporter gene assay; type: functional, cell-based, Hepacivirus hominis; settings: Huh-7, 96 h
Hepatitis C virus [12] = assay: Antiviral activity against HCV genotype 2a/k infected in human HuH7 cells assessed as inhibition of viral RNA replication after 96 hrs by RT-PCR method; type: functional, cell-based, Hepacivirus hominis; settings: Huh-7, 96 h
Hepatitis C virus [13] = assay: Antiviral activity against HCV genotype 1b infected in human HuH7 cells assessed as inhibition of viral RNA replication after 96 hrs by RT-PCR method; type: functional, cell-based, Hepacivirus hominis; settings: Huh-7, 96 h
Hepatitis C virus [14] = assay: Antiviral activity against HCV genotype 1a infected in human HuH7 cells assessed as inhibition of viral RNA replication after 96 hrs by RT-PCR method; type: functional, cell-based, Hepacivirus hominis; settings: subtype 1a, Huh-7, 96 h
HepG2 [15] = assay: Cytotoxicity against human HepG2 cells assessed as inhibition of nuclear DNA levels measured on day 14 by RT-PCR method; settings: HepG2, 336 h
in vitro [16] = settings: human, liver microsomes
Description: Clearance in human liver microsomes at 1 uM by LC-MS/MS analysis

nuclear DNA levels [17] = assay: Cytotoxicity against human HepG2 cells assessed as inhibition of nuclear DNA levels at 50 uM measured on day 14 by RT-PCR method relative to nuclear beta-actin DNA levels; type: cell-based; settings: read-out: INH
Hepatitis C virus [18] = assay: Antiviral activity against HCV genotype 2b infected in human HuH7 cells assessed as inhibition of viral RNA replication after 96 hrs by RT-PCR method; type: functional, cell-based, Hepacivirus hominis; settings: Huh-7, 96 h
in vitro [19] = settings: human, liver microsomes; remark: listed apart in the source
Description: Metabolic stability in human liver microsomes assessed as parent compound remaining at 1 uM at 60 mins by LC-MS/MS analysis

Hepatitis C virus [20] = assay: Antiviral activity against HCV genotype 3a infected in human HuH7 cells assessed as inhibition of viral RNA replication after 96 hrs by RT-PCR method; type: functional, cell-based, Hepacivirus hominis; settings: Huh-7, 96 h
[21] = Cytotoxicity against human primary BMNC cells up to 50 uM measured on day 14; type: cell-based
HepG2 [22] = assay: Mitochondrial toxicity in human HepG2 cells assessed as lactic acid production at 10 uM measured on day 14 by spectrophotometric method relative to control; type: cell-based; settings: hepg2, 10 µM
[23] = test system: cytochrome c oxidase subunit 2 DNA (mitochondrial DNA) levels; assay: in vitro; settings: human, HepG2 cells
[24] = Cytotoxicity against African green monkey Vero cells assessed as inhibition of cell proliferation after 3 days by MTT assay; type: cell-based; settings: chlorocebus sabaeus
in vitro [25] = settings: human, liver microsomes; remark: listed apart in the source
Description: Half life in human liver microsomes at 1 uM by LC-MS/MS analysis

HepG2 [26] = assay: Mitochondrial toxicity in human HepG2 cells assessed as cytochrome c oxidase subunit 2 DNA levels at 10 uM measured on day 14 by RT-PCR method relative to nuclear beta-actin DNA levels; settings: hepg2, 10 µM
HepG2 [27] = assay: Mitochondrial toxicity in human HepG2 cells assessed as lactic acid production at 50 uM measured on day 14 by spectrophotometric method relative to control; type: cell-based; settings: hepg2, 50 µM
[28] = Clearance in human intestinal microsomes; type: ADME, Intestine, Microsome
Hepatitis C virus [29] = assay: Antiviral activity against HCV genotype 1b harboring wild type NS5B infected in human HuH7 cells assessed as inhibition of viral RNA replication after 5 days by RT-PCR method; type: functional, cell-based, Hepacivirus hominis; settings: Huh-7, 120 h
[30] = Prodrug conversion in human primary hepatocytes assessed as increase in nucleoside 5' triphosphate levels at 50 uM after 4 hrs by LC-MS/MS analysis relative to sofosbuvir; type: ADME, cell-based, Hepatocyte
[31] = Half life in human intestinal microsomes; type: ADME, Intestine, Microsome
[32] = Prodrug conversion in human HuH7 cells assessed as increase in nucleoside 5' triphosphate levels at 50 uM after 4 hrs by LC-MS/MS analysis relative to sofosbuvir; type: ADME, cell-based; settings: huh-7, 4 h
Hepatitis C virus [33] = assay: Selectivity ratio of EC90 for HCV genotype 1b harboring NS5B S282T mutant to EC90 for HCV genotype 1b harboring wild type NS5B; type: functional, Hepacivirus hominis
[34] = test system: cytochrome c oxidase subunit 2 DNA (mitochondrial DNA) levels; assay: Mitochondrial toxicity in human HepG2 cells assessed as inhibition of cytochrome c oxidase subunit 2 DNA levels measured on day 14 by RT-PCR method; type: cell-based
Cytochrome P450 3A4 = Cytochrome P450 3A4 (Homo sapiens, UniProt P08684); assay: Inhibition of human CYP3A4 using ketoconazole […]; type: ADME
Sequence of Cytochrome P450 3A4 (P08684 whole entry): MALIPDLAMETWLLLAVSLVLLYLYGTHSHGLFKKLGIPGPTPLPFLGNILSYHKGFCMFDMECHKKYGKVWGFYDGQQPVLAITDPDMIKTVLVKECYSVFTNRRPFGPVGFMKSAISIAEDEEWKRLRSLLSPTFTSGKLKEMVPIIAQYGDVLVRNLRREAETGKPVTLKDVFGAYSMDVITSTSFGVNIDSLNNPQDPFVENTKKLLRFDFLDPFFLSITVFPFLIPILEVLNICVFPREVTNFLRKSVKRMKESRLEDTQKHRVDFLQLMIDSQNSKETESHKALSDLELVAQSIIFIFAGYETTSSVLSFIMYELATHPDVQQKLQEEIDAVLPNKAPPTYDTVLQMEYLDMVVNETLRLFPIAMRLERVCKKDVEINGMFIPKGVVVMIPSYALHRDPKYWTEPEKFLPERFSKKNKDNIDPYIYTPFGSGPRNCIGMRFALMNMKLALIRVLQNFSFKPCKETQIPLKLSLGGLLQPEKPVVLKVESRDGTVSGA

Sequence of Cytochrome P450 2D6 (P10635 whole entry): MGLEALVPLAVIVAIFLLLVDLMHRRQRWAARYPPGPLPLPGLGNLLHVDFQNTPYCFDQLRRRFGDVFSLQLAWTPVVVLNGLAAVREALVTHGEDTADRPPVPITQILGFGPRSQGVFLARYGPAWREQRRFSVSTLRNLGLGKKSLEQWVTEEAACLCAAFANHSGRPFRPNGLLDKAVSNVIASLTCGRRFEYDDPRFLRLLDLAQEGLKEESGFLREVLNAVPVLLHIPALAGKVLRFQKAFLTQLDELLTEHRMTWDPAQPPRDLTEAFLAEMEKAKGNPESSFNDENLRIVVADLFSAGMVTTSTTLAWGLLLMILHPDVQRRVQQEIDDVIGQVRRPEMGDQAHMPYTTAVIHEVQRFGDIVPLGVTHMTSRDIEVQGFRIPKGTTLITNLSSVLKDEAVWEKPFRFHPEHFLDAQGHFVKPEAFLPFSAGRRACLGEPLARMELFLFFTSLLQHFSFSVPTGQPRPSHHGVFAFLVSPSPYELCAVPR
Sequence of Cytochrome P450 2C9 (P11712 whole entry): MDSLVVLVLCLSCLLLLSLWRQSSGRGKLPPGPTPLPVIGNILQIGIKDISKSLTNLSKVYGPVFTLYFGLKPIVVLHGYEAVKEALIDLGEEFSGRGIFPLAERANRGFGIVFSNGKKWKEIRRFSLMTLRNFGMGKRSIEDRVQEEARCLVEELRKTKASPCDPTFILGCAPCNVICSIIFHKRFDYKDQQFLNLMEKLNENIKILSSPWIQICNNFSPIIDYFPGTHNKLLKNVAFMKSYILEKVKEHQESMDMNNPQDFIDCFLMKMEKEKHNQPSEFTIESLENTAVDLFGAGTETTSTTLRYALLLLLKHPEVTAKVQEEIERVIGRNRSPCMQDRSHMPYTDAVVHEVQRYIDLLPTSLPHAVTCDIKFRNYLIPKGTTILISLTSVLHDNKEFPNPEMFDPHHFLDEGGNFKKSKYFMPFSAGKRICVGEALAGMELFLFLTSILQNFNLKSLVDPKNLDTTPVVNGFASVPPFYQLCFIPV

CC(C)OC(=O)[C@H](C)NP(=O)(OC[C@H]1O[C@@H](n2ccc(=O)[nH]c2=O)[C@@](F)(Cl)[C@@H]1O)Oc1ccccc1 (mixture of isomers)
Ratio EC50 (Hepatitis C virus [1]): 3.5 | Activity (HepG2 [2]): 84% | IC50 (Cytochrome P450 2C9): 25 µM | IC50 (Cytochrome P450 2D6): > 100 µM | IC50 (Hepatitis C virus [3]): 0.17 µM | IC50 (Cytochrome P450 1A2): > 100 µM | CC50 at 96 h [4]: > 10 µM | remaining at 1 h [5]: 79% | remaining at 2 h, 2 µM [6]: 103% | inhibition at 14 days, 50 µM [7]: 27% | cytotoxicity at 14 days, 10 µM (nuclear DNA levels [8]): < 1% | CC50 at 96 h [9]: > 100 µM | CC50 at 120 h [10]: > 100 µM | EC50 (Hepatitis C virus [11]): 0.07 µM | EC90 (Hepatitis C virus [11]): 0.2 µM | IC50 (Hepatitis C virus [12]): 0.05 µM | IC50 (Hepatitis C virus [13]): 0.15 µM | IC50 (Hepatitis C virus [14]): 0.13 µM | IC50 (HepG2 [15]): > 50 µM | microsomal CLint at 1 µM (in vitro [16]): 120 µL/min/mg | cytotoxicity at 14 days, 50 µM (nuclear DNA levels [17]): 13% | IC50 (Hepatitis C virus [18]): 0.09 µM | remaining at 1 h, 1 µM (in vitro [19]): 4.2% | IC50 (Hepatitis C virus [20]): 0.15 µM | Activity [21]: Non-Toxic | Activity (HepG2 [22]): 60% | inhibition at 14 days, 10 µM [23]: < 1% | CC50 at 72 h [24]: > 100 µM | half-life at 1 µM (in vitro [25]): 0.193 h | Activity (HepG2 [26]): 130% | Activity (HepG2 [27]): 56% | microsomal CLint [28]: 29 µL/min/mg | EC50 (Hepatitis C virus [29]): 0.02 to 0.2 µM | EC90 (Hepatitis C virus [29]): 0.07 to 0.4 µM | fold change (FC) [30]: 2.3 | half-life [31]: 2 h | fold change (FC) [32]: 2.7 | Selectivity ratio (Hepatitis C virus [33]): 2.9 | IC50 at 14 days [34]: > 50 µM | IC50 (Cytochrome P450 3A4): 6.8 µM
